Laboratory results as given in patent US10189854B2, “Substituted pyrimidine compounds” (Grünenthal GmbH, priority 2014, dated 2019).

Molecular target: human PDE4B1 (Homo sapiens (Human), UniProt Q07343)
Assay: cAMP HTRF assay to determine the activity of hPDE4B1
Format: biochemical
Conditions: IC50 inhibition of PDE4B; human recombinant PDE4B1, cAMP HTRF assay
Outline: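 Recombinant human PDE4B1 expressed in Sf9 cells (4.8 U) was incubated with 40 nM cAMP for 30 min at room temperature in Tris buffer, pH 7.8, with MgCl2, DTT and Tween 20. HTRF detection of remaining cAMP followed, with 1 mM IBMX stop, read 60 min later as the 665/620 nm ratio. Results are % inhibition versus control.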

Sequence of human PDE4B1 (Q07343 whole entry): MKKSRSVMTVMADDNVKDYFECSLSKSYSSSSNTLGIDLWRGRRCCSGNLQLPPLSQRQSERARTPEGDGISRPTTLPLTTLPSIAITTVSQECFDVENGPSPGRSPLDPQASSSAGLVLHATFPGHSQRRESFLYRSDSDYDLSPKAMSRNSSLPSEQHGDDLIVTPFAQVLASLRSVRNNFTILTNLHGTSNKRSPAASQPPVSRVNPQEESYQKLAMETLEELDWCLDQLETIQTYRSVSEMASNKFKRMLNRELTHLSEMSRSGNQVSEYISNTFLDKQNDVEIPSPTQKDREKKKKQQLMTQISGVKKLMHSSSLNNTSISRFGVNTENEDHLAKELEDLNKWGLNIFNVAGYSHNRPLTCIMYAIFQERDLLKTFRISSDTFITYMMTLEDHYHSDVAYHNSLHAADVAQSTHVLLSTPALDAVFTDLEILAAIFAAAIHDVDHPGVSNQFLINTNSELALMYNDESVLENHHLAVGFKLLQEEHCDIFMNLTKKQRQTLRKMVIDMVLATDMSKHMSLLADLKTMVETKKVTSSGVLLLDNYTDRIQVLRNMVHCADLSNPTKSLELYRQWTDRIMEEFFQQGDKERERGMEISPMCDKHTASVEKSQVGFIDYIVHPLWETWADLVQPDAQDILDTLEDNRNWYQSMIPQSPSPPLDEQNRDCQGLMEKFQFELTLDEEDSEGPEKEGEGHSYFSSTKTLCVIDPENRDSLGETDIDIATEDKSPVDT

| Compound | IC50 [µM] |
| --- | --- |
| COc1cccc(-c2cnc(N3CC4(CC4)c4ccc(C(=O)N5CC6CC5CN6)cc43)nc2)c1 (centres unmarked) [Compound 212, (2,5-Diazabicyclo[2.2.1]heptan-2-yl)-[1-[5-(3-methoxyphenyl)-pyrimidin-2-yl]-spiro[1,2-dihydro-indole-3,1′-cyclopropane]-6-yl]-methanone; 2,2,2-trifluoro-acetic acid] | < 0.1 |
| CN(C)CCN(C)C(=O)c1ccc2c(c1)N(c1ncc(-c3ccccc3F)cn1)CC21CC1 [Compound 99, N-[2-(Dimethylamino)ethyl]-1-[5-(2-fluorophenyl)-pyrimidin-2-yl]-N-methyl-spiro[1,2-dihydro-indole-3,1′-cyclopropane]-6-carboxylic acid amide] | < 0.1 |
| NC(=O)c1ccccc1-c1cnc(N2CC3(CC3)c3ccc(C(=O)N4CCOCC4)cc32)nc1 [Compound 25, 2-[2-[6-(Morpholine-4-carbonyl)-spiro[1,2-dihydro-indole-3,1′-cyclopropane]-1-yl]-pyrimidin-5-yl]-benzamide] | 0.1 to 1 |
| N#Cc1ccc(F)c(-c2cnc(N3CC4(CC4)c4ccc(C(=O)N5CC[C@@H](N)C5)cc43)nc2)c1 [Compound 123, 3-[2-[6-[(3R)-3-Amino-pyrrolidine-1-carbonyl]-spiro[1,2-dihydro-indole-3,1′-cyclopropane]-1-yl]-pyrimidin-5-yl]-4-fluoro-benzonitrile] | < 0.1 |
| O=C(c1ccc2c(c1)N(c1ncc(-c3ccccc3F)cn1)CC21CC1)N1CCS(=O)(=O)CC1 [Compound 106, (1,1-Dioxo-[1,4]thiazinan-4-yl)-[1-[5-(2-fluorophenyl)-pyrimidin-2-yl]-spiro[1,2-dihydro-indole-3,1′-cyclopropane]-6-yl]-methanone] | 0.1 to 1 |
| O=C(c1ccc2c(c1)N(c1ncc(-c3ccccc3)cn1)CC21CC1)N1CCOCC1 [Compound 7, Morpholin-4-yl-[1-(5-phenyl-pyrimidin-2-yl)-spiro[1,2-dihydro-indole-3,1′-cyclopropane]-6-yl]-methanone] | < 0.1 |
| O=C(c1ccc2c(c1)N(c1ncc(-c3c(F)cccc3F)cn1)CC21CC1)N1CCOCC1 [Compound 27, [1-[5-(2,6-Difluoro-phenyl)-pyrimidin-2-yl]-spiro[1,2-dihydro-indole-3,1′-cyclopropane]-6-yl]-morpholin-4-yl-methanone] | < 0.1 |
| CC(=O)Nc1ccc(-c2cnc(N3CC4(CC4)c4ccc(C(=O)N5CCOCC5)cc43)nc2)s1 [Compound 158, N-[5-[2-[6-(Morpholine-4-carbonyl)-spiro[1,2-dihydro-indole-3,1′-cyclopropane]-1-yl]-pyrimidin-5-yl]-thiophen-2-yl]-acetamide] | < 0.1 |
| COc1cccc(-c2cnc(N3CC4(CC4)c4ccc(C(=O)N5CCOCC5)cc43)nc2)c1 [Compound 48, [1-[5-(3-Methoxyphenyl)-pyrimidin-2-yl]-spiro[1,2-dihydro-indole-3,1′-cyclopropane]-6-yl]-morpholin-4-yl-methanone] | < 0.1 |
| [1-[5-(6-Chloro-pyrimidin-4-yl)-pyrimidin-2-yl]-spiro[1,2-dihydro-indole-3,1′-cyclopropane]-6-yl]-morpholin-4-yl-methanone [Compound 206] | < 0.1 |
| COc1ccsc1-c1cnc(N2CC3(CC3)c3ccc(C(=O)N4CCNC(=O)C4)cc32)nc1 [Compound 177, 4-[1-[5-(3-Methoxy-thiophen-2-yl)-pyrimidin-2-yl]-spiro[1,2-dihydro-indole-3,1′-cyclopropane]-6-carbonyl]-piperazin-2-one] | < 0.1 |
| O=C(c1ccc2c(c1)N(c1ncc(-c3ccc(CO)s3)cn1)CC21CC1)N1CCOCC1 [Compound 149, [1-[5-[5-(Hydroxymethyl)-thiophen-2-yl]-pyrimidin-2-yl]-spiro[1,2-dihydro-indole-3,1′-cyclopropane]-6-yl]-morpholin-4-yl-methanone] | < 0.1 |
| CCN1CCN(C(=O)c2ccc3c(c2)N(c2ncc(-c4ccccc4F)cn2)CC32CC2)CC1 [Compound 86, (4-Ethyl-piperazin-1-yl)-[1-[5-(2-fluorophenyl)-pyrimidin-2-yl]-spiro[1,2-dihydro-indole-3,1′-cyclopropane]-6-yl]methanone] | 0.1 to 1 |
| 1-[5-(3-Cyano-phenyl)-pyrimidin-2-yl]-N-(2-hydroxy-ethyl)-N-methyl-spiro[1,2-dihydro-indole-3,1′-cyclo-propane]-6-carboxylic acid amide [Compound 193] | < 0.1 |
| 4-[1-(5-Phenyl-pyrimidin-2-yl)-spiro[1,2-dihydro-indole-3,1′-cyclopropane]-6-carbonyl]-piperazine-2,6-dione [Compound 202] | 0.1 to 1 |
| O=C(c1ccc2c(c1)N(c1ncc(-c3ccncc3)cn1)CC21CC1)N1CCOCC1 [Compound 146, Morpholin-4-yl-[1-(5-pyridin-4-yl-pyrimidin-2-yl)-spiro[1,2-dihydro-indole-3,1′-cyclopropane]-6-yl]-methanone] | < 0.1 |

| Compound | IC50 [µM] |
| --- | --- |
| O=C(c1ccc2c(c1)N(c1ncc(-c3cc(F)cnc3F)cn1)CC21CC1)N1CCOCC1 [Compound 163, [1-[5-(2,5-Difluoro-pyridin-3-yl)-pyrimidin-2-yl]-spiro[1,2-dihydro-indole-3,1′-cyclopropane]-6-yl]-morpholin-4-yl-methanone] | < 0.1 |
| O=C(c1ccc2c(c1)N(c1ncc(-c3ccccc3)cn1)CC21CC1)N1CCNCC1 [Compound 49, [1-(5-Phenyl-pyrimidin-2-yl)-spiro[1,2-dihydro-indole-3,1′-cyclopropane]-6-yl]-piperazin-1-yl-methanone] | < 0.1 |
| O=C(c1ccc2c(c1)N(c1ncc(-c3ccccc3C(F)F)cn1)CC21CC1)N1CCOCC1 [Compound 39, [1-[5-[2-(Difluoro-methyl)-phenyl]-pyrimidin-2-yl]spiro[1,2-dihydro-indole-3,1′-cyclopropane]-6-yl]-morpholin-4-yl-methanone] | 0.1 to 1 |
| N#Cc1ccc(-c2cnc(N3CC4(CC4)c4ccc(C(=O)N5CCOCC5)cc43)nc2)s1 [Compound 143, 5-[2-(6-(Morpholine-4-carbonyl)-spiro[1,2-dihydro-indole-3,1′-cyclopropane]-1-yl]-pyrimidin-5-yl]-thiophene-2-carbonitrile] | < 0.1 |
| O=C1CN(C(=O)c2ccc3c(c2)N(c2ncc(-c4cc(F)cc(F)c4)cn2)CC32CC2)CCN1 [Compound 128, 4-[1-[5-(3,5-Difluoro-phenyl)-pyrimidin-2-yl]-spiro[1,2-dihydro-indole-3,1′-cyclopropane]-6-carbonyl]-piperazin-2-one] | < 0.1 |
| O=C(c1ccc2c(c1)N(c1ncc(-c3ccc(F)cc3)cn1)CC21CC1)N1CCOCC1 [Compound 43, [1-[5-(4-Fluorophenyl)-pyrimidin-2-yl]-spiro[1,2-dihydro-indole-3,1′-cyclopropane]-6-yl]-morpholin-4-yl-methanone] | < 0.1 |
| CS(=O)(=O)c1ccc(F)c(-c2cnc(N3CC4(CC4)c4ccc(C(=O)N5CCOCC5)cc43)nc2)c1 [Compound 42, [1-[5-(2-Fluoro-5-methylsulfonyl-phenyl)-pyrimidin-2-yl]-spiro[1,2-dihydro-indole-3,1′-cyclopropane]-6-yl]-morpholin-4-yl-methanone] | < 0.1 |
| O=C(c1ccc2c(c1)N(c1ncc(-c3ccncc3F)cn1)CC21CC1)N1CCOCC1 [Compound 147, [1-[5-(3-Fluoro-pyridin-4-yl)-pyrimidin-2-yl]-spiro[1,2-dihydro-indole-3,1′-cyclopropane]-6-yl]-morpholin-4-yl-methanone] | < 0.1 |
| CC(C)(O)c1ccc(-c2cnc(N3CC4(CC4)c4ccc(C(=O)N5CCOCC5)cc43)nc2)s1 [Compound 207, [1-[5-[5-(1-Hydroxy-1-methyl-ethyl)-thiophen-2-yl]-pyrimidin-2-yl]-spiro[1,2-dihydro-indole-3,1′-cyclopropane]-6-yl]-morpholin4--yl-methanone] | < 0.1 |
| O=C(c1ccc2c(c1)N(c1ncc(-c3ccc(Cl)s3)cn1)CC21CC1)N1CCOCC1 [Compound 131, [1-[5-(5-Chloro-thiophen-2-yl)-pyrimidin-2-yl]-spiro[1,2-dihydro-indole-3,1′-cyclopropane]-6-yl]-morpholin-4-yl-methanone] | 0.1 to 1 |
| COc1ccccc1-c1cnc(N2CC3(CC3)c3ccc(C(=O)N4CCOCC4)cc32)nc1 [Compound 31, [1-[5-(2-Methoxyphenyl)-pyrimidin-2-yl]-spiro[1,2-dihydro-indole-3,1′-cyclopropane]-6-yl]-morpholin-4-yl-methanone] | < 0.1 |
| O=C1CN(C(=O)c2ccc3c(c2)N(c2ncc(-c4ccccc4F)cn2)CC32CC2)CCN1 [Compound 4, 4-[1-[5-(2-Fluorophenyl)-pyrimidin-2-yl]-spiro[1,2-dihydro-indole-3,1′-cyclopropane]-6-carbonyl]-piperazin-2-one] | < 0.1 |
| NC(=O)c1ccc(-c2cnc(N3CC4(CC4)c4ccc(C(=O)N5CCOCC5)cc43)nc2)s1 [Compound 152, 5-[2-[6-(Morpholine-4-carbonyl)-spiro[1,2-dihydro-indole-3,1′-cyclopropane]-1-yl]-pyrimidin-5-yl]-thiophene-2-carboxylic acid amide] | 0.1 to 1 |
| O=C(c1ccc2c(c1)N(c1ncc(-c3ccccc3F)cn1)CC21CC1)N1CCC2(CNC2)C1 [Compound 74, (2,6-Diazaspiro[3.4]octan-6-yl)-[1-[5-(2-fluorophenyl)-pyrimidin-2-yl]-spiro[1,2-dihydro-indole-3,1′-cyclopropane]-6-yl]-methanone] | 1 to 10 |
| NC(=O)c1ccc(-c2cnc(N3CC4(CC4)c4ccc(C(=O)N5CCOCC5)cc43)nc2)c(F)c1 [Compound 26, 3-Fluoro-4-[2-[6-(morpholine-4-carbonyl]-spiro[1,2-dihydro-indole-3,1′-cyclopropane]-1-yl]-pyrimidin-5-yl]-benzamide] | < 0.1 |
| [1-[5-(2-Fluorophenyl)-pyrimidin-2-yl]-spiro[1,2-dihydro-pyrrolo[2,3-b]pyridine-3,1′-cyclobutane]-6-yl]-morpholin-4-yl-methanone [Compound 171] | 0.1 to 1 |
